Legend:
[1] = tested on: P. falciparum NF54 hsp86-PpyRE13 asexual stages; assay: P. falciparum asexual stage assay (pLDH); type: cell-based, Plasmodium falciparum; conditions: Plasmodium falciparum, NF54, read-out: NF54 Hsp86 PpYRE13 (IC50 nM)
Method: With the selected 84 compounds, the subsequent step aimed at determining the gametocyte inhibition potency and the parasite stage selectivity between the gametocytes and the asexual stages in the NF54 hsp86-PpyRE13. […] Similar data were obtained considering the gametocyte IC50 values measured in the NF54 pfs16-GFP-PyLUC strain (see Supplementary Data 2).
Parasite proliferation assays were performed in 384-well plates (Thermo, 4332, USA) with a starting parasitemia of 0.25% at a haematocrit of 2% by quantification of parasite lactate dehydrogenase (pLDH). Compounds or DMSO as control were pre dispensed on plates, from 10 mM DMSO stock solutions, via an acoustic droplet ejection device (ATS-100, EDC Biosystems) to achieve de final desired concentration. Assay plates were incubated for 72 h at 37 °C in 4% CO2, 3% O2, and 93% N2 modified atmosphere. After the incubation period, plates are frozen at −80 °C for two h and then thawed at room temperature for 2 h. Then, 50 µL of the developer solution (70 mM Tris-HCl pH 8.0, 0.5% Tween-20, 100 mM Lithium L-Lactate, 125 µM nitro blue tetrazolium, 2 U/ml diaphorase and 100 µM 3-Acetylpyridine Adenine Dinucleotide) are added to each well and let to react for 10 min. Absorbance was then read at 650 nm by a suitable spectrophotometer.

[2] = tested on: HeLa cells; assay: HeLa cell proliferation assay (CellTiter Glo); type: cell-based, human; conditions: Homo sapiens
Method: In addition, we tested the 84 compounds in a dose-response fashion on HeLa cells to quantitatively monitor their cytotoxicity potential.
HeLa cells (CCL-2, ATCC, USA) were cultured in DMEM without phenol red (Thermo, 11880, USA) + 10% FBS + 1X PenStrep + 1X Gln. They were plated in a 384-well plate (Thermo, 4334-11, USA) to a density of 2000 cells per well and let recover for 4 h at 37 °C, 5% CO2 in a humidified atmosphere. After the recovery, compounds were transferred to assay plates as per compound preparation method. Assay plates were then incubated at 37 °C, 5% CO2 in a humidified atmosphere for 72 h. Cell viability was measured by the CellTiTer Glo (Promega, G8080, USA) as per manufacturer instruction.

SMILES	IC50 [1]	IC50 [2]
Cc1ccc(Nc2cc(C)nc(Nc3ccc(NC(=O)c4cc5ccccc5oc4=O)cc3)n2)cc1 [Compound 63]	1730 nM	8690 nM
COc1ccc(NC(=O)Nc2ccc(Nc3nc(C)cc(Nc4ccc(C)cc4)n3)cc2)cc1 [Compound 65]	904 nM	4500 nM
COc1ccc(Nc2cc(C)nc(Nc3ccc(NC(=O)c4cc(C)cc(C)c4)cc3)n2)cc1 [Compound 64]	437 nM	8100 nM
COc1ccccc1Cn1cc2c(-c3ccc(F)cc3)nnc-2c2cc(OC)c(OC)cc21 [Compound 31]	967 nM	5000 nM
O=C(c1ccc([N+](=O)[O-])o1)N1CCC(Cn2cnc3ccccc32)CC1 [Compound 69]	6150 nM	11300 nM
COc1cc(CNCC2CCNCC2)ccc1OCc1cccc(Cl)c1 [Compound 53]	2360 nM	5340 nM
OC(c1ccc(Cl)cc1)C1CCN(CCCN2CCC(C(O)c3ccc(Cl)cc3)CC2)CC1 (stereo not drawn) [Compound 13]	1740 nM	4510 nM
Clc1ccc(Nc2nc(-c3ccccn3)cs2)nc1 [Compound 39]	540 nM	2950 nM
Cc1ccc2nc(-c3ccccc3)c(CSc3cccc[n+]3[O-])n2c1 [Compound 16]	1270 nM	9510 nM
